# Assay results published in patent US20190054093A1, “TREATMENT OF SARCOPENIA WITH ECDYSTEROIDS” (priority 2014, published 2019).
# Legend:
# [1] = tested on: Caspase-3 expression in C2C12 myotubes; experiment: Caspase 3 expression in C2C12 myotubes (quantitative RT-PCR, Example 4); type: cell-based, mouse; details: 24 hours; extracts and turkesterone 0.002, 0.02 and 2 ppm, 20HE 0.001, 0.01 and 1 ppm
# Experimental: Experiments similar to those in example 1 have been carried out with two other plant-derived, ecdysteroid-rich extracts. […] Cells between passages 3 and 10 were seeded at a density of 10,000 cells per cm^2. Cells were grown for 48 h until they reached 80-90% confluence. […] Cells were maintained at 37° C. in a humidified 5% CO2 incubator and medium was changed every other day.
# For RNA and protein extraction C2C12 myotubes were incubated with 0.002, 0.02 and 2 ppm of Rhaponticum carthamoides extract (RCE) and Cyanotis arachnoidea extract (CAE) or 0.001, 0.01 and 1 ppm of 20-hydroxyecdysone or 0.002, 0.02 and 2 ppm of Turkesterone for 24 hours. These two latter served as positive controls. RNA and protein were extracted using All Prep RNA/Protein Kit (Qiagen, Spain). RNA was stored at −80° C. and protein at −20° C. until further use. Total RNA was quantified using a fluorometric method with Quant-iT kit (Invitrogen, Spain). The cDNA was reverse-transcribed from the RNA extract using RT^2First Stand cDNA kit (Qiagen, Spain). Quantitative real-time RT-PCR for Caspase-3 and Myostatin were carried out using a MX3005P Q-PCR System (Agilent Technologies) and SYBR-Green/ROX detection. The housekeeping gene used was Actb and Mouse XpressRef Universal total RNA (Qiagen, Spain) as a positive control. […] The fold change in gene expression was calculated with ΔΔCt Method.
# C2C12 myotubes [2] = type: cell-based, mouse; details: dose response experiment; 16 h
# Experimental: After cells reached 80-90% confluence (72 hours post-seeding) the media was replaced with differentiation media (DM): DMEM containing 2% horse serum (PAA; GE HealthCare), 10 mM Hepes (Lonza), 6 mM glutamine, 100 U/mL penicilin and 100 μgr/mL streptomycin (Biochrom). Media was replaced every 2 days, and after 10 days the myoblast has fused into multinucleated myotubes showing a fusion index of 70-80%.
# Before cell treatment, a 2000× Botanicals Extracts Stocks solutions were prepared in Biological grade DMSO (Sigma) or Ultrapure H2O (milliQ; Millipore), sonicated for 30 min and Filtered using a 0.22 μm pore size syringe filter membrane (Millipore). […]
# Protein synthesis was determined by measuring the incorporation of the tritiated L-Leucine (^3H-Leu) into C2C12 cellular proteins. […] Radioactivity was measured using a liquid scintillation counter (Tri-Carb, Perkin Elmer) and expressed as decay per minute (DPM). Total protein was quantified using Bradford method-based assay (microassay procedure) following the manufacturer's instructions (Biorad protein assay, BioRad Laboratories). Protein synthesis was calculated from the trichloroacetic acid-insoluble radioactivity incorporated per microgram of total protein. Results were expressed as relative increase in L-[3H]-Leucine compared with 100% of not treated Control. […]
# [3] = rats fed 5 mg/kg BW for 7 days; 20HE derived from Rhaponticum carthamoides; cited from earlier work
# [4] = tested on: Primary human skeletal muscle cells; experiment: Protein synthesis by radio-labeled leucine incorporation in human skeletal myotubes (Example 3); details: 100 nM, 24 h of treatment
# Experimental: Primary human skeletal muscle cells (a gift from Dr. William Cefalu of the Pennington Biomedical Research Center, Baton Rouge, La.) were seeded at a density of 10^5 cells/cm2 onto 24-well tissue culture plates. The cells were grown in DMEM supplemented with 10% FBS and a SingleQuot Kit (Lonza, Portsmouth, N.H.) containing epidermal growth factor, insulin, bovine serum albumin (BSA), fetuin, dexamethasone, and gentamicin/amphotericin-B. Cells were grown for 96 h in 5% CO2 at 37° C. until they reached 80% confluency, and the medium was replaced with differentiation medium (DMEM with 2% horse serum). After 18 days, myoblasts fused into multinucleated myotubes. […] Additionally, extracts of spinach or Ajuga turkestanica were also added. Radio-labeled leucine was used to assess any changes in protein synthesis. Decays per minute (DPM) were measured in a liquid scintillation counter (LS 6500, Beckman Coulter). Total protein was quantified using the bicinchoninic acid (BCA) method following the manufacturer's instructions (Pierce, Rockford, Ill.). The data were expressed as DPM per milligram of total protein.
# C2C12 myotubes [5] = experiment: Protein synthesis by radio-labeled leucine incorporation in C2C12 myotubes (Example 3); type: cell-based, mouse
# [6] = molecular target: T1, recombinant rat androgen receptor (Rattus norvegicus, UniProt P15207); experiment: Androgen receptor binding assay, displacement of [3H]mibolerone; details: concentrations of 1 to 100 μM
# T1 sequence (P15207 1-902): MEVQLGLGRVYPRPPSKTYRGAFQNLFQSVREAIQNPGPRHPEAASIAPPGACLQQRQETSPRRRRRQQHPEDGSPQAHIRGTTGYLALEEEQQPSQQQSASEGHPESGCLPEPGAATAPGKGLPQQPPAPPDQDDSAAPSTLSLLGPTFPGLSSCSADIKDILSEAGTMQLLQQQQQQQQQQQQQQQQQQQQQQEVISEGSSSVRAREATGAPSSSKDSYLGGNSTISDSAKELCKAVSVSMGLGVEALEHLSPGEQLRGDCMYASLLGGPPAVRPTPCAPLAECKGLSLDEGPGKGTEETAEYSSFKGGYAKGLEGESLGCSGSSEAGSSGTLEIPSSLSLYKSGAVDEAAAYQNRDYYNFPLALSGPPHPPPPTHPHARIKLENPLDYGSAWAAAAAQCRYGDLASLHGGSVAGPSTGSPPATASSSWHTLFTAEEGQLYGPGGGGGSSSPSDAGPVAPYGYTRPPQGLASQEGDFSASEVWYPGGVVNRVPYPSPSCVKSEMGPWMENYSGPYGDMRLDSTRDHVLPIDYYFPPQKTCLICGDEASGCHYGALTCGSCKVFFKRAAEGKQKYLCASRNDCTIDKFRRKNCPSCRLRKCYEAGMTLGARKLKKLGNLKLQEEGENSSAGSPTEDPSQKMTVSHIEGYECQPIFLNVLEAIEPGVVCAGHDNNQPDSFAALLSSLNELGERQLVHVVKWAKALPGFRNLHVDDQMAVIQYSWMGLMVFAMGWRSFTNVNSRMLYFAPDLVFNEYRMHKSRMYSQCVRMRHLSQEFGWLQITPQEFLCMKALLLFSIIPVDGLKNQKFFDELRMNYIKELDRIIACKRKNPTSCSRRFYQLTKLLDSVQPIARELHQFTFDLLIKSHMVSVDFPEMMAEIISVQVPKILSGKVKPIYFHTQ
# Experimental: Briefly, recombinant rat androgen receptor was combined with [3H]mibolerone in a buffer of 50 mM Tris-HCl, pH 7.5, 0.8 M NaCl, 10% glycerol, 2 mM dithiothreitol, 1 mg/mlL BSA, and 2% ethanol. DPM of the incubation buffer was measured to quantify displacement of the labeled ligand.
smiles,measurement,setting,value
"CC(C)(O)CC[C@@H](O)[C@](C)(O)[C@H]1CC[C@@]2(O)C3=CC(=O)[C@@H]4C[C@@H](O)[C@@H](O)C[C@]4(C)[C@H]3CC[C@]12C [Example 20HE, 20-hydroxyecdysone]",regulation of Caspase 3 expression,[1],significant effect in down regulation
same,protein synthesis versus the control group,C2C12 myotubes [2],statistically significant increase
same,"weight of liver, heart, kidneys and the tibialis anterior muscle",[3],increases
same,"protein synthesis, % of control",[4],120 % of control
same,"protein synthesis, % of control",C2C12 myotubes [5]; 40 nM,110 % of control
same,"protein synthesis, % of control (peak effect)",C2C12 myotubes [5]; 0.1 μM,120 % of control
same,inhibition of [3H]mibolerone binding,[6],did not show any significant inhibition
